Data on 39 molecules can be found in patent US8003670B2, “Aminoalkoxy aryl sulfonamide compounds and their use as 5-HT6 ligands” (Suven Life Sciences Limited, priority 2007, dated 2011).

What is called melting point is the temperature, or range, at which the solid turns liquid. The term inhibition denotes the drop in the measured response relative to a control, in per cent. What is called Ki is the equilibrium dissociation constant of an inhibitor or competing ligand from its target.

Counter-ions that a name gives are not always drawn.

T1 sequence (P50406 whole entry): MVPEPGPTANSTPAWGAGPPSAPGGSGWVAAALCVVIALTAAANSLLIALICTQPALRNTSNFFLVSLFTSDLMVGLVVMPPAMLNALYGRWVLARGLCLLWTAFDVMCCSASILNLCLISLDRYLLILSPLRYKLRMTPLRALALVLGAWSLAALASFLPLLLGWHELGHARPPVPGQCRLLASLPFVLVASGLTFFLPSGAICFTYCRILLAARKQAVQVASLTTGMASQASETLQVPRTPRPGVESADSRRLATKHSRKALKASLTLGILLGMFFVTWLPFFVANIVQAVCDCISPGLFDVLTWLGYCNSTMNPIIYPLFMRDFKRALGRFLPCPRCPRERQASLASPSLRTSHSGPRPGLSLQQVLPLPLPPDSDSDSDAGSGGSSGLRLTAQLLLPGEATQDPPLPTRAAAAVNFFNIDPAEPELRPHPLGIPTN

System in one data set: not given
Test: not given
Settings: not given
Molecule `CCc1ccc(S(=O)(=O)n2cc(Br)c3cc(F)ccc32)cc1OC1CCNCC1.Cl` came in with a melting point of 289.9 to 291.5 °C.

With `CCc1ccc(S(=O)(=O)n2ccc3cc(F)ccc32)cc1OC1CCNCC1.Cl`, the melting point lay within 201.46 to 204.21 °C.

Consider `Cl.O=S(=O)(c1ccc(Cl)c(OC2CCNCC2)c1)n1ccc2ccc(Cl)cc21`, for which the melting point was 258.3 to 259.5 °C.

Regarding `CC(C)c1ccc(S(=O)(=O)n2ccc3cc(F)ccc32)cc1OC1CCN(C)CC1` [Example 53, 5-Fluoro-1-[4′-isopropyl-3′-(1-methylpiperidin-4-yloxy)benzenesulfonyl]-1H-indole], the melting point was 73.2 to 74.5 °C.

Molecule `COc1ccc2c(ccn2S(=O)(=O)c2ccc(OC)c(OC3CCNCC3)c2)c1.Cl` [Example 56, 5-Methoxy-1-[4′-methoxy-3′-(piperidin-4-yloxy)benzenesulfonyl]-1H-indole hydrochloride] yielded a melting point of 231.2 to 232.7 °C.

Take `COc1ccc2c(c1)c(C)cn2S(=O)(=O)c1ccc(C(C)C)c(OC2CCN(C)CC2)c1` [Example 61, 5-Methoxy-3-methyl-1-[4′-isopropyl-3′-(1-methylpiperidin-4-yloxy)benzenesulfonyl]-1H-indole]: the melting point was 73.2 to 74.5 °C.

Molecule `COc1ccc(S(=O)(=O)n2ccc3ccc(Cl)cc32)cc1OC1CCN(C)CC1` [Example 62, 6-Chloro-1-[4′-methoxy-3′-(1-methylpiperidin-4-yloxy)benzenesulfonyl]-1H-indole] gave a melting point of 112 to 115 °C.

On to `COc1ccc(S(=O)(=O)n2ccc3cc(Br)ccc32)cc1OC1CCN(C)CC1` [Example 63, 5-Bromo-1-[4′-methoxy-3′-(1-methylpiperidin-4-yloxy)benzenesulfonyl]-1H-indole], for which the melting point fell in the range of 127.2 to 128 °C.

Regarding `CCc1ccc(S(=O)(=O)n2cc(Br)c3cc(F)ccc32)cc1OC1CCN(C)CC1` [Example 67, 3-Bromo-5-fluoro-1-[4′-ethyl-3′-(1-methylpiperidin-4-yloxy)benzenesulfonyl]-1H-indole], the melting point was in the range of 133.2 to 134.5 °C.

Another data set has as its target T1, 5-HT6 receptor (Homo sapiens, UniProt P50406).
Test: not given
To be noted: literature; cited from earlier work.
For the molecule `CN(C)CCC=C1c2ccccc2CCc2ccccc21` [amitriptyline], the “Affinity for the 5-HT6 receptor (in words)” value was “high affinity”.

Consider `CN1CCN2c3ccccc3Cc3ccccc3C2C1` (centres unmarked) [mianserin], for which the “Affinity for the 5-HT6 receptor (in words)” value is on record as “high affinity”.

In the next data set the target is T1, 5-HT6 receptor. Nature of the data set: Binding assay for human 5-HT6 receptor ([3H]LSD radioligand). Details: expressed in transfected cells; host or cells: HEK293. To be noted: 100 nM test compound; human recombinant receptor in HEK293 cells; [3H]LSD 1.5 nM; read-out: Radioligand binding data at 5-HT6 R (h) % Inhibition of specific binding at 100 nM. Here is the method:
Compounds can be tested according to the following the procedures.
Receptor source: Human recombinant expressed in HEK293 cells
Radioligand: [^3H]LSD (60-80 Ci/mmol)
Final ligand concentration—[1.5 nM]
Non-specific determinant: Methiothepin mesylate—[0.1 μM]
Reference compound: Methiothepin mesylate
Positive control: Methiothepin mesylate
Reactions were carried out in […] TRIS-HCl (pH 7.4) containing […] MgCl2, 0.5 mM EDTA for […] at 37° C. The reaction was terminated by rapid vacuum filtration onto glass fiber filters. Radioactivity trapped onto the filters was determined and compared to control values in order to ascertain any interactions of test compound(s) with the cloned serotonin 5-HT6 binding site.
Mol. Pharmacol. (43): 320-327 (1993).
As to `CN1CCC(Oc2cccc(S(=O)(=O)n3ccc4cc(F)ccc43)c2)CC1` [Example 8, 5-Fluoro-1-[3′-(1-methylpiperidin-4-yloxy)benzenesulfonyl]-1H-indole], the inhibition at 0.1 µM is 61.7%.

`COc1ccc2c(ccn2S(=O)(=O)c2cccc(OC3CCN(C)CC3)c2)c1` [Example 9, 5-Methoxy-1-[3′-(1-methylpiperidin-4-yloxy)benzenesulfonyl]-1H-indole]: the inhibition at 0.1 µM is 58.2%.

Turning to `Cc1ccc(S(=O)(=O)n2ccc3cc(F)ccc32)cc1OC1CCN(C)CC1` [Example 24, 5-Fluoro-1-(4′-methyl-3′-(1-methylpiperidin-4-yloxy)benzenesulfonyl)-1H-indole hydrochloride], the inhibition at 0.1 µM stood at 89.4%.

On to `COc1ccc2c(ccn2S(=O)(=O)c2ccc(C(C)C)c(OC3CCN(C)CC3)c2)c1` [Example 52, 5-Methoxy-1-[4′-isopropyl-3′-(1-methylpiperidin-4-yloxy)benzenesulfonyl]-1H-indole], for which the inhibition at 0.1 µM came to 31.5%.

Take `CC(C)c1ccc(S(=O)(=O)n2ccc3cc(F)ccc32)cc1OC1CCN(C)CC1` [Example 53, 5-Fluoro-1-[4′-isopropyl-3′-(1-methylpiperidin-4-yloxy)benzenesulfonyl]-1H-indole]: the inhibition at 0.1 µM stood at 66.9%.

`Cc1ccc(S(=O)(=O)n2cc(C)c3ccccc32)cc1OC1CCN(C)CC1` [Example 54, 3-Methyl-1-[4′-methyl-3′-(1-methylpiperidin-4-yloxy)benzenesulfonyl]-1H-indole]: the inhibition at 0.1 µM is 99.7%.

`CCc1ccc(S(=O)(=O)n2ccc3cc(OC)ccc32)cc1OC1CCN(C)CC1` [Example 55, 5-Methoxy-1-[4-ethyl-3-(1-methylpiperidin-4-yloxy)benzenesulfonyl]-1H-indole]: the inhibition at 0.1 µM was determined as 89%.

Consider `COc1ccc2c(ccn2S(=O)(=O)c2ccc(OC)c(OC3CCNCC3)c2)c1.Cl` [Example 56, 5-Methoxy-1-[4′-methoxy-3′-(piperidin-4-yloxy)benzenesulfonyl]-1H-indole hydrochloride], for which the inhibition at 0.1 µM was determined as 88.6%.

On to `COc1ccc(S(=O)(=O)n2ccc3cc(F)ccc32)cc1OC1CCN(C)CC1` [Example 58, 5-Fluoro-1-[4′-methoxy-3′-(1-methylpiperidin-4-yloxy)benzenesulfonyl]-1H-indole], for which the inhibition at 0.1 µM amounted to 91.6%.

With `CN1CCC(Oc2cc(S(=O)(=O)n3ccc4cc(F)ccc43)ccc2Cl)CC1` [Example 59, 5-Fluoro-1-[4′-chloro-3′-(1-methylpiperidin-4-yloxy)benzenesulfonyl]-1H-indole], the inhibition at 0.1 µM came to 89.8%.

The data set is the same for the next values; noted with them: human recombinant receptor in HEK293 cells; [3H]LSD 1.5 nM; 37° C.; read-out: Radioligand binding data at 5-HT6 R (h) Ki.
Take `Cc1ccc(S(=O)(=O)n2ccc3ccccc32)cc1OCCN(C)C` [Example 10, 1-[4′-Methyl-3′-(N,N-dimethylaminoethoxy)benzenesulfonyl]-1H-indole]: the inhibitory constant (Ki) is 2.75 nM.

On to `Cc1ccc(S(=O)(=O)n2ccc3cc(F)ccc32)cc1OCCN(C)C` [Example 11, 5-Fluoro-1-[4′-methyl-3′-(N,N-dimethylaminoethoxy)benzenesulfonyl]-1H-indole], for which the Ki is 5.87 nM.

As to `Cc1ccc(S(=O)(=O)n2ccc3cc(Br)ccc32)cc1OCCN(C)C` [Example 12, 5-Bromo-1-[4′-methyl-3′-(N,N-dimethylaminoethoxy)benzenesulfonyl]-1H-indole], the Ki amounted to 28.3 nM.

For `COc1ccc2c(ccn2S(=O)(=O)c2ccc(C)c(OCCN(C)C)c2)c1` [Example 13, 1-[4′-Methyl-3′-(N,N-dimethylaminoethoxy)benzenesulfonyl]-5-methoxy-1H-indole], the Ki came out at 11.2 nM.

Consider `Cc1ccc(S(=O)(=O)n2ccc3ccc(Cl)cc32)cc1OCCN(C)C` [Example 15, 6-Chloro-1-[4′-methyl-3′-(N,N-dimethylaminoethoxy)benzenesulfonyl]-1H-indole], for which the Ki was determined as 1.57 nM.

In the case of `Cc1ccc(S(=O)(=O)n2ccc3ccccc32)cc1OCCCN(C)C` [Example 16, 1-[4′-Methyl-3′-(N,N-dimethylaminopropoxy)benzenesulfonyl]-1H-indole], the inhibition constant (Ki) came out at 1.86 nM.

For the molecule `Cc1ccc(S(=O)(=O)n2ccc3cc(F)ccc32)cc1OCCCN(C)C` [Example 17, 5-Fluoro-1-[4′-Methyl-3′-(N,N-dimethylaminopropoxy)benzenesulfonyl]-1H-indole], the Ki is 12.5 nM.

For the molecule `Cc1ccc(S(=O)(=O)n2ccc3cc(Br)ccc32)cc1OCCCN(C)C` [Example 18, 5-Bromo-1-[4′-Methyl-3′-(N,N-dimethylaminopropoxy)benzenesulfonyl]-1H-indole], the Ki was 11.8 nM.

As to `COc1ccc2c(ccn2S(=O)(=O)c2ccc(C)c(OCCCN(C)C)c2)c1` [Example 19, 1-[4′-Methyl-3′-(N,N-dimethylaminopropoxy)benzenesulfonyl]-5-methoxy-1H-indole], the Ki was 30.9 nM.

With `CCOc1ccc2c(ccn2S(=O)(=O)c2ccc(C)c(OCCCN(C)C)c2)c1` [Example 20, 5-Ethoxy-1-[4′-methyl-3′-(N,N-dimethylaminopropoxy)benzenesulfonyl]-1H-indole], the Ki is 12.4 nM.

As to `Cc1ccc(S(=O)(=O)n2ccc3ccc(Cl)cc32)cc1OCCCN(C)C` [Example 21, 6-Chloro-1-[4′-methyl-3′-(N,N-dimethylaminopropoxy)benzenesulfonyl]-1H-indole], the Ki was determined as 13.1 nM.

`CCc1ccc(S(=O)(=O)n2ccc3ccccc32)cc1OCCN(C)C` [Example 26, 1-[4′-Ethyl-3′-(N,N-dimethylaminoethoxy)benzenesulfonyl]-1H-indole]: the Ki stood at 1.9 nM.

Consider `CCc1ccc(S(=O)(=O)n2ccc3cc(F)ccc32)cc1OCCN(C)C` [Example 30, 1-[4′-Ethyl-3′-(N,N-dimethylaminoethoxy)benzenesulfonyl]-5-fluoro-1H-indole], for which the Ki amounted to 5.44 nM.

Turning to `CCc1ccc(S(=O)(=O)n2ccc3ccccc32)cc1OCCCN(C)C` [Example 31, 1-[4′-Ethyl-3′-(N,N-dimethylaminopropoxy)benzenesulfonyl]-1H-indole], the Ki was found to be 35.2 nM.

Turning to `CCc1ccc(S(=O)(=O)n2ccc3cc(Br)ccc32)cc1OCCCN(C)C` [Example 32, 5-Bromo-1-[4′-Ethyl-3′-(N,N-dimethylaminopropoxy)benzenesulfonyl]-1H-indole], the Ki was found to be 7.55 nM.

On to `CCc1ccc(S(=O)(=O)n2ccc3ccc(Cl)cc32)cc1OCCCN(C)C` [Example 33, 1-[4′-Ethyl-3′-(N,N-dimethylaminopropoxy)benzenesulfonyl]-6-chloro-1H-indole], for which the Ki was determined as 5.8 nM.

Turning to `CCc1ccc(S(=O)(=O)n2ccc3cc(F)ccc32)cc1OCCCN(C)C` [Example 35, 1-[4′-Ethyl-3′-(N,N-dimethylaminopropoxy)benzenesulfonyl]-5-fluoro-1H-indole], the Ki was found to be 18.8 nM.

As to `CC(C)c1ccc(S(=O)(=O)n2ccc3ccccc32)cc1OCCN(C)C` [Example 36, 1-[4′-Isopropyl-3′-(N,N-dimethylaminoethoxy)benzenesulfonyl]-1H-indole], the inhibition constant Ki turned out to be 13.9 nM.

On to `COc1ccc2c(ccn2S(=O)(=O)c2ccc(C(C)C)c(OCCCN(C)C)c2)c1` [Example 43, 1-[4′-Isopropyl-3′-(N,N-dimethylaminopropoxy)benzenesulfonyl]-5-Methoxy-1H-indole], for which the Ki came to 62.5 nM.

In the case of `Cc1ccc(S(=O)(=O)n2ccc3c(Cl)cccc32)cc1OCCCN(C)C` [Example 79, 4-Chloro-1-[4′-Methyl-3′-(N,N-dimethylaminopropoxy)benzenesulfonyl]-1H-indole], the Ki is 13.6 nM.
